Assay results from the supplement of paper PMC10307832.

Tests used:
Test in all cases: relative viability (nuclei count vs DMSO), 5 days (fraction); higher = more cells survive
Doxorubicin + AZD7762 = compound: COc1cccc2c1C(=O)c1c(O)c3c(c(O)c1C2=O)C[C@@](O)(C(=O)CO)C[C@@H]3O[C@H]1C[C@H](N)[C@H](O)[C@H](C)O1 [Doxorubicin] + NC(=O)Nc1cc(-c2cccc(F)c2)sc1C(=O)N[C@H]1CCCNC1 [AZD7762] (partner 0.2 µM)
In short: (§1)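 Cells from lung cancer lines were seeded into 1536-well plates and, one day later, dosed by pin tool. Treatments were either a single drug or a fixed dose of an anchor drug with five library-drug doses (not always all listed) in √10 steps. After 5 days, nuclei were stained in a one-step fixation (final 0.05% Triton X-100, 1% formaldehyde, 1 ug/ml Hoechst) and counted on 4× images, and relative viability is the treated-to-vehicle nuclei ratio, as the median of duplicate plates.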

BAY61-3606 + Pictilisib = compound: COC1=C(C=C(C=C1)C2=CC3=NC=CN3C(=N2)NC4=C(C=CC=N4)C(=O)N)OC [BAY61-3606] + CS(=O)(=O)N1CCN(Cc2cc3nc(-c4cccc5[nH]ncc45)nc(N4CCOCC4)c3s2)CC1 [Pictilisib] (partner 1 µM)
In short: as §1

BAY61-3606 + Decitabine = compound: COC1=C(C=C(C=C1)C2=CC3=NC=CN3C(=N2)NC4=C(C=CC=N4)C(=O)N)OC [BAY61-3606] + Nc1ncn([C@H]2C[C@H](O)[C@@H](CO)O2)c(=O)n1 [Decitabine] (partner 2 µM)
In short: as §1

Doxorubicin + Trametinib = compound: COc1cccc2c1C(=O)c1c(O)c3c(c(O)c1C2=O)C[C@@](O)(C(=O)CO)C[C@@H]3O[C@H]1C[C@H](N)[C@H](O)[C@H](C)O1 [Doxorubicin] + CC(=O)Nc1cccc(-n2c(=O)n(C3CC3)c(=O)c3c(Nc4ccc(I)cc4F)n(C)c(=O)c(C)c32)c1 [Trametinib] (partner 0.02 µM)
In short: as §1

Cell Line	relative viability (Doxorubicin + AZD7762; first compound 0.001 µM)	relative viability (Doxorubicin + AZD7762; first compound 0.003162 µM)	relative viability (Doxorubicin + AZD7762; first compound 0.01 µM)	relative viability (Doxorubicin + AZD7762; first compound 0.03162 µM)	relative viability (Doxorubicin + AZD7762; first compound 0.1 µM)	relative viability (BAY61-3606 + Pictilisib; first compound 0.02 µM)	relative viability (BAY61-3606 + Pictilisib; first compound 0.06325 µM)	relative viability (BAY61-3606 + Pictilisib; first compound 0.2 µM)	relative viability (BAY61-3606 + Pictilisib; first compound 0.6325 µM)	relative viability (BAY61-3606 + Pictilisib; first compound 2 µM)	relative viability (BAY61-3606 + Decitabine; first compound 0.02 µM)	relative viability (BAY61-3606 + Decitabine; first compound 0.06325 µM)	relative viability (BAY61-3606 + Decitabine; first compound 0.2 µM)	relative viability (BAY61-3606 + Decitabine; first compound 0.6325 µM)	relative viability (BAY61-3606 + Decitabine; first compound 2 µM)	relative viability (Doxorubicin + Trametinib; first compound 0.001 µM)	relative viability (Doxorubicin + Trametinib; first compound 0.003162 µM)	relative viability (Doxorubicin + Trametinib; first compound 0.01 µM)	relative viability (Doxorubicin + Trametinib; first compound 0.03162 µM)	relative viability (Doxorubicin + Trametinib; first compound 0.1 µM)
LCLC-103H	0.781	0.815	0.75	0.767	0.826	0.646	0.737	0.654	0.542	0.646	0.773	0.707	0.75	0.748	0.773	0.704	0.725	0.697	0.65	0.623
LK-2	0.354	0.578	0.274	0.341	0.251	0.594	0.423	0.614	0.758	0.532	0.319	0.287	0.362	0.28	0.342	0.798	0.936	0.598	0.578	0.699
LOU-NH91		0.79	0.77	0.722	0.429	0.566	0.544	0.568	0.505	0.472	0.809	0.805	0.847	0.838	0.746		0.724	0.766	0.766	0.654
LU99A	0.353	0.394	0.429	0.317	0.324	0.343	0.352	0.34	0.329	0.278	0.926	1.01	0.966	0.804	0.559	0.521	0.614	0.628	0.592	0.635
LXF-289	1.04	1.11	1.09	1.2	1.06	0.846	0.83	0.782	0.805	0.84	0.399	0.402	0.411	0.396	0.405	0.666	0.697	0.675	0.723	0.738
NCI-H23	0.142	0.249	0.229	0.204	0.208	0.743	0.522	0.49	0.522	0.382	0.393	0.329	0.363	0.346	0.383	0.326	0.45	0.344	0.334	0.45
NCI-H322M	0.514	0.546	0.6	0.502	0.429	0.506	0.529	0.516	0.523	0.482	0.747	0.666	0.662	0.706	0.657	0.478	0.565	0.52	0.542	0.498
NCI-H358	0.548	0.542	0.597	0.367	0.258	0.385	0.327	0.333	0.321	0.167	0.226	0.228	0.241	0.228	0.14	0.164	0.138	0.138	0.089	0.0919
NCI-H441	1.05	1.07	0.954	0.853	0.912	0.561	0.529	0.493	0.475	0.282	0.249	0.223	0.242	0.256	0.253	0.426	0.471	0.45	0.205	0.188
NCI-H460	0.659	0.635	0.561	0.177	0.0853	0.433	0.353	0.319	0.35	0.377	0.508	0.572	0.43	0.448	0.382	0.138	0.0856	0.0422	0.0236	0.0041
NCI-H596	1.13	1.12	0.987	0.986	0.959	0.41	0.387	0.386	0.416	0.408	1.06	0.967	1.14	0.965	1.08	0.733	0.896	0.661	0.659	0.671
NCI-H647	0.352	0.417	0.466	0.19	0.0766	0.622	0.297	0.435	0.404	0.365	0.382	0.433	0.391	0.416	0.256	0.449	0.623	0.543	0.295	0.202
NCI-H650	0.949	0.921	0.948	0.89	0.718	0.984	0.722	0.798	1.01	0.596	0.358	0.302	0.338	0.385	0.301	0.98	0.876	1.04	0.881	0.917
NCI-H727	0.675	0.575		0.497	0.573	0.443	0.4	0.392	0.386	0.267	0.8	0.8	0.947	0.981	0.895	0.401	0.382		0.397	0.382
NCI-H838	0.921	0.934	0.913	0.919	0.749	0.568	0.432	0.601	0.523	0.324	0.448	0.508	0.47	0.454	0.393	0.515	0.612	0.536	0.294	0.239
NCI-H1355	0.838	0.741	0.741	0.673	0.72	0.508	0.378	0.389	0.374	0.302	0.391	0.377	0.389	0.359	0.361	0.457	0.45	0.472	0.43	0.462

Cell Line	relative viability (Doxorubicin + AZD7762; first compound 0.001 µM)	relative viability (Doxorubicin + AZD7762; first compound 0.003162 µM)	relative viability (Doxorubicin + AZD7762; first compound 0.01 µM)	relative viability (Doxorubicin + AZD7762; first compound 0.03162 µM)	relative viability (Doxorubicin + AZD7762; first compound 0.1 µM)	relative viability (BAY61-3606 + Pictilisib; first compound 0.02 µM)	relative viability (BAY61-3606 + Pictilisib; first compound 0.06325 µM)	relative viability (BAY61-3606 + Pictilisib; first compound 0.2 µM)	relative viability (BAY61-3606 + Pictilisib; first compound 0.6325 µM)	relative viability (BAY61-3606 + Pictilisib; first compound 2 µM)	relative viability (BAY61-3606 + Decitabine; first compound 0.02 µM)	relative viability (BAY61-3606 + Decitabine; first compound 0.06325 µM)	relative viability (BAY61-3606 + Decitabine; first compound 0.2 µM)	relative viability (BAY61-3606 + Decitabine; first compound 0.6325 µM)	relative viability (BAY61-3606 + Decitabine; first compound 2 µM)	relative viability (Doxorubicin + Trametinib; first compound 0.001 µM)	relative viability (Doxorubicin + Trametinib; first compound 0.003162 µM)	relative viability (Doxorubicin + Trametinib; first compound 0.01 µM)	relative viability (Doxorubicin + Trametinib; first compound 0.03162 µM)	relative viability (Doxorubicin + Trametinib; first compound 0.1 µM)
NCI-H1395	0.414	0.435	0.421	0.347	0.377	0.777	0.524	0.584	0.641	0.559	0.824	0.709	0.799	0.661	0.686	0.929	0.948	0.964	0.971	0.867
NCI-H1437	1.11	0.994	1.04	1.09	0.877	0.532	0.44	0.507	0.442	0.391	0.579	0.602	0.564	0.563	0.582	0.564	0.609	0.46	0.363	0.26
NCI-H1651	0.466	0.536	0.399	0.509	0.397	0.628	0.689	0.623	0.531	0.401	0.621	0.539	0.555	0.568	0.481	0.82	0.843	0.817	0.707	0.796
NCI-H1666	0.909	0.762	0.882	0.795	0.596	0.521		0.447	0.375	0.395	0.784	0.655	0.658	0.737	0.686		0.796	0.65	0.584	0.517
NCI-H1734	0.515	0.58	0.539	0.318	0.283	0.46	0.459	0.485	0.406	0.324	0.551	0.512	0.503	0.504	0.388	0.689	0.724	0.641	0.611	0.634
NCI-H1755	0.523	0.489	0.393	0.485	0.491	0.532	0.35	0.463	0.415	0.385	0.671	0.666	0.656	0.673	0.773	0.791	0.804	0.784	0.77	0.88
NCI-H1792	0.653	0.824	0.721	0.522	0.45	0.293	0.176	0.328	0.363	0.303	0.605	0.572	0.547	0.617	0.493	0.393	0.556	0.456	0.392	0.422
NCI-H1793		0.432	0.574	0.298	0.358	0.434	0.381	0.303	0.352	0.434	0.504	0.501	0.558	0.539	0.651		0.4	0.373	0.4	0.4
NCI-H1915	0.694	0.761	0.644	0.688	0.714	0.999	0.99	0.739	0.884	0.685	0.258	0.261	0.265	0.253	0.23	0.306	0.31	0.313	0.312	0.303
NCI-H1944	0.512	0.573	0.451	0.483	0.46	0.384	0.346	0.337	0.326	0.281	0.408	0.466	0.424	0.434	0.327	0.398	0.422	0.385	0.399	0.449
NCI-H1975	0.738	0.623	0.764	0.599	0.391	0.354	0.238	0.253	0.262	0.19	0.394	0.416	0.438	0.421	0.271	0.256	0.332	0.376	0.234	0.248
NCI-H1993	0.856	0.882	0.708	0.73	0.579	0.871	0.764	0.755	0.868	0.804	0.632	0.622	0.542	0.536	0.601	0.667		0.501	0.473	0.513
NCI-H2085	0.972	0.974	0.856	1.1	0.896	0.376	0.487	0.499	0.459	0.601	0.531	0.528	0.555	0.531	0.53	0.623	0.557	0.564	0.472	0.496
NCI-H2087	1.3	1.32	1.32	1.34	1.17	1.05	0.937	0.865	0.878	0.666	0.352	0.291	0.295	0.269	0.229	0.17	0.201	0.158	0.172	0.166
NCI-H2126	0.913	0.921	0.966	0.985	1	0.543	0.503	0.492	0.51	0.447	0.631	0.606	0.583	0.623	0.555	0.6	0.572	0.561	0.526	0.601
